# What was measured:
# Experiment in all cases: relative viability (nuclei count vs DMSO), 5 days (fraction); higher = more cells survive
# [1] = compound: C1=CC2=C(C=C(C(=C2N=C1)O)N=NC3=CC4=C(C=C3)C=C(C=C4)S(=O)(=O)O)S(=O)(=O)O + CC(=O)Nc1cccc(-n2c(=O)n(C3CC3)c(=O)c3c(Nc4ccc(I)cc4F)n(C)c(=O)c(C)c32)c1 [Trametinib] (partner 0.02 µM)
# Summary of the method: (§1)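 Lung cancer cell lines in 1536-well plates were dosed by pin tool the day after seeding, either with one drug alone or with a fixed anchor-drug dose plus five library-drug doses (not always all listed) in √10 steps. After 5 days, cells were fixed and their nuclei stained in one step (final 0.05% Triton X-100, 1% formaldehyde, 1 ug/ml Hoechst), then counted on 4× images. Relative viability is the nuclei count in treated wells divided by that in vehicle wells. Values are medians of duplicate plates.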
# [2] = compound: C1=CC2=C(C=C(C(=C2N=C1)O)N=NC3=CC4=C(C=C3)C=C(C=C4)S(=O)(=O)O)S(=O)(=O)O + N=C(N)NC(=N)NCCc1ccccc1 [Phenformin] (partner 250 µM)
# Summary of the method: as §1
# [3] = compound: C1=CC2=C(C=C(C(=C2N=C1)O)N=NC3=CC4=C(C=C3)C=C(C=C4)S(=O)(=O)O)S(=O)(=O)O + Nc1ncn([C@H]2C[C@H](O)[C@@H](CO)O2)c(=O)n1 [Decitabine] (partner 2 µM)
# Summary of the method: as §1
# AT-7519 + Navitoclax = compound: O=C(NC1CCNCC1)c1n[nH]cc1NC(=O)c1c(Cl)cccc1Cl [AT-7519] + CC1(C)CCC(c2ccc(Cl)cc2)=C(CN2CCN(c3ccc(C(=O)NS(=O)(=O)c4ccc(N[C@H](CCN5CCOCC5)CSc5ccccc5)c(S(=O)(=O)C(F)(F)F)c4)cc3)CC2)C1 [Navitoclax] (partner 0.5 µM)
# Summary of the method: as §1
Cell Line,relative viability ([1]; first compound 0.08 µM),relative viability ([1]; first compound 0.253 µM),relative viability ([1]; first compound 0.8 µM),relative viability ([1]; first compound 2.53 µM),relative viability ([1]; first compound 8 µM),relative viability ([2]; first compound 0.08 µM),relative viability ([2]; first compound 0.253 µM),relative viability ([2]; first compound 0.8 µM),relative viability ([2]; first compound 2.53 µM),relative viability ([2]; first compound 8 µM),relative viability ([3]; first compound 0.08 µM),relative viability ([3]; first compound 0.253 µM),relative viability ([3]; first compound 0.8 µM),relative viability ([3]; first compound 2.53 µM),relative viability ([3]; first compound 8 µM),relative viability (AT-7519 + Navitoclax; first compound 0.01 µM),relative viability (AT-7519 + Navitoclax; first compound 0.03162 µM),relative viability (AT-7519 + Navitoclax; first compound 0.3162 µM),relative viability (AT-7519 + Navitoclax; first compound 1 µM)
NCI-H2009,0.316,0.3,0.294,0.288,0.24,0.498,0.455,0.504,0.498,0.441,0.351,0.327,0.358,0.373,0.297,1.19,1.19,1.19,0.96
NCI-H2405,0.635,0.597,0.599,0.686,0.687,0.382,0.384,0.371,0.342,0.362,0.744,0.685,0.7,0.828,0.742,1.02,0.829,0.853,0.528
NCI-H1755,0.761,0.754,0.739,0.761,0.732,0.597,0.59,0.605,0.63,0.651,0.771,0.679,0.714,0.737,0.698,1.05,0.983,1.02,0.986
HCC-78,0.804,0.724,0.813,0.712,0.675,0.725,0.617,0.651,0.74,0.685,0.796,0.671,0.756,0.708,0.589,0.743,0.664,0.901,0.685
LOU-NH91,0.841,0.77,0.759,0.733,0.797,0.644,0.74,0.706,0.712,0.607,0.865,0.791,0.834,0.791,0.841,0.668,0.629,0.693,0.525
NCI-H3122,0.218,0.225,0.227,0.242,0.225,0.369,0.379,0.378,0.418,0.323,0.415,0.471,0.472,0.448,0.439,1.02,1.07,1.06,0.558
HCC-827,0.505,0.521,0.524,0.524,0.578,0.405,0.335,0.397,0.416,0.45,0.402,0.311,0.297,0.342,0.306,0.991,1.1,0.996,0.995
SK-LU-1,0.681,0.509,0.517,0.499,0.672,0.597,0.493,0.558,0.572,0.624,0.795,0.679,0.664,0.616,0.655,0.516,0.848,0.882,0.189
NCI-H1975,0.382,0.332,0.381,0.292,0.585,0.424,0.434,0.413,0.386,0.39,0.462,0.393,0.405,0.384,0.408,1.01,1.02,0.87,0.236
NCI-H1651,0.799,0.839,0.832,0.848,0.744,0.386,0.331,0.385,0.329,0.337,0.79,0.548,0.659,0.658,0.535,0.983,1.08,0.997,0.882
NCI-H441,0.558,0.464,0.435,0.341,0.476,0.918,0.761,0.731,0.947,0.821,0.245,0.246,0.238,0.252,0.248,0.592,0.628,0.571,0.412
LCLC-97TM1,0.197,0.183,0.191,0.182,0.15,0.403,0.491,0.434,0.45,0.384,0.217,0.29,0.198,0.25,0.204,0.637,0.31,0.461,0.398
NCI-H727,0.344,0.398,0.351,0.356,0.335,0.564,0.474,0.502,0.627,0.572,0.951,0.854,0.793,0.929,0.801,0.374,0.449,0.245,0.121
NCI-H1355,0.41,0.411,0.431,0.416,0.476,0.484,0.432,0.44,0.481,0.434,0.4,0.363,0.362,0.353,0.352,0.984,0.873,1.09,0.865
HOP-62,0.428,0.392,0.452,0.37,0.359,0.836,0.584,0.618,0.645,0.53,0.186,0.206,0.24,0.254,0.228,0.824,0.983,1.01,0.923
NCI-H2085,0.538,0.512,0.557,0.582,0.433,0.795,0.743,0.687,0.752,0.755,0.561,0.53,0.496,0.631,0.546,1.18,1.21,0.967,0.658

# — the supplement of paper PMC10307832
